{"source": "the ASAP Discovery antiviral challenge data (2025)", "key": {"[1]": {"settings": "mdck_mdr1"}, "[2]": {"settings": "human; liver_microsomes"}, "[3]": {"assay": "not given", "remark": "listed apart in the source"}, "[4]": {"settings": "mouse; liver_microsomes"}}, "note": "Where “and” joins values, the source holds several entries; their conditions need not be identical. Equal entries are not always repeated.", "data": [{"smiles": "CNC(=O)[C@H](Nc1cc(Cl)cc(NC(=O)OCc2ccccc2)c1)c1cccc(-c2nn[nH]n2)c1", "note": "(racemic)", "values": [{"measurement": "Papp", "setting": "[1]", "value": 1.39, "unit": "×10⁻⁶ cm/s"}, {"measurement": "solubility kinetic", "value": 333, "unit": "µM"}, {"measurement": "microsomal CLint", "setting": "[2]", "value": 21.3, "unit": "µL/min/mg"}, {"measurement": "logD", "setting": "[3]", "value": 2.2}]}, {"smiles": "N#C[C@H](Nc1cccc(-c2nn[nH]n2)c1)c1cc(Cl)cc(NC(=O)OCc2ccccc2)c1", "note": "(racemic)", "values": [{"measurement": "Papp", "setting": "[1]", "value": 3.23, "unit": "×10⁻⁶ cm/s"}, {"measurement": "solubility kinetic", "value": 344, "unit": "µM"}, {"measurement": "microsomal CLint", "setting": "[2]", "value": 13.6, "unit": "µL/min/mg"}, {"measurement": "logD", "setting": "[3]", "value": 3.2}]}, {"smiles": "N#C[C@H](Nc1cccc(C(=O)O)c1)c1cc(Cl)cc2[nH]ncc12", "note": "(racemic)", "values": [{"measurement": "Papp", "setting": "[1]", "value": 1.22, "unit": "×10⁻⁶ cm/s"}, {"measurement": "solubility kinetic", "value": 112, "unit": "µM"}, {"measurement": "microsomal CLint", "setting": "[2]", "value": 12, "unit": "µL/min/mg"}, {"measurement": "logD", "setting": "[3]", "value": 0.6}]}, {"smiles": "O=C(Nc1ccc2c(c1)CNC2)c1cc(Cl)cc2[nH]ncc12", "values": [{"measurement": "Papp", "setting": "[1]", "value": 1.8, "unit": "×10⁻⁶ cm/s"}, {"measurement": "microsomal CLint", "setting": "[4]", "value": 243, "unit": "µL/min/mg"}, {"measurement": "solubility kinetic", "value": 279, "unit": "µM"}, {"measurement": "logD", "setting": "[3]", "value": 0.9}]}, {"smiles": "CNC(=O)c1cccc(-c2cc3c(N[C@H](c4ccc5c(c4)S(=O)(=O)CCC5)C(C)C)ncnc3[nH]2)c1", "note": "(single isomer, unassigned)", "values": [{"measurement": "Papp", "setting": "[1]", "value": "0.502 ×10⁻⁶ cm/s and 0.627 ×10⁻⁶ cm/s"}, {"measurement": "solubility kinetic", "value": "13 µM and 15 µM"}, {"measurement": "microsomal CLint", "setting": "[2]", "value": "746 µL/min/mg and 455 µL/min/mg"}, {"measurement": "logD", "setting": "[3]", "value": "3.8 and 3.7"}]}, {"smiles": "N#Cc1cccc(-c2nc3c(C(=O)Nc4ccc5c(c4)CNC5)cc(F)cc3[nH]2)c1", "values": [{"measurement": "microsomal CLint", "setting": "[4]", "value": 22, "unit": "µL/min/mg"}, {"measurement": "solubility kinetic", "value": 3, "unit": "µM"}, {"measurement": "logD", "setting": "[3]", "value": 2}]}, {"smiles": "CC(C)[C@H](Nc1ncnc2[nH]c(C(=O)N[C@H]3CCN(C)C3)cc12)c1ccc2c(c1)S(=O)(=O)CCC2", "note": "(single isomer, unassigned)", "values": [{"measurement": "Papp", "setting": "[1]", "value": "0.175 ×10⁻⁶ cm/s and 0.325 ×10⁻⁶ cm/s"}, {"measurement": "solubility kinetic", "value": "396 µM and 392 µM"}, {"measurement": "microsomal CLint", "setting": "[2]", "value": "11 µL/min/mg and 26 µL/min/mg"}, {"measurement": "logD", "setting": "[3]", "value": "1.4 and 1.5"}]}, {"smiles": "NCc1cccc(NC(=O)c2cc(Cl)cc(CN)c2)c1", "values": [{"measurement": "Papp", "setting": "[1]", "value": 1.96, "unit": "×10⁻⁶ cm/s"}, {"measurement": "solubility kinetic", "value": 375, "unit": "µM"}, {"measurement": "microsomal CLint", "setting": "[2]", "value": 21, "unit": "µL/min/mg"}, {"measurement": "logD", "setting": "[3]", "value": -0.6}]}, {"smiles": "CC[C@H](Cc1nnn[nH]1)c1ccc(NC(=O)c2cc(Cl)cc(NC(=O)OCc3ccccc3)c2)cc1", "note": "(racemic)", "values": [{"measurement": "Papp", "setting": "[1]", "value": 2.79, "unit": "×10⁻⁶ cm/s"}, {"measurement": "solubility kinetic", "value": 60, "unit": "µM"}, {"measurement": "microsomal CLint", "setting": "[2]", "value": 24.9, "unit": "µL/min/mg"}, {"measurement": "logD", "setting": "[3]", "value": 4.1}]}, {"smiles": "Cn1cc2c(C(=O)Nc3ccc4c(c3)CNC4)cc(F)cc2n1", "values": [{"measurement": "Papp", "setting": "[1]", "value": 3.4, "unit": "×10⁻⁶ cm/s"}, {"measurement": "microsomal CLint", "setting": "[4]", "value": 18.2, "unit": "µL/min/mg"}, {"measurement": "solubility kinetic", "value": 309, "unit": "µM"}, {"measurement": "logD", "setting": "[3]", "value": 0.2}]}, {"smiles": "O=C(NCC(F)(F)F)c1cc(Cl)c(F)cc1NS(=O)(=O)c1ccc(Oc2ccccc2Cl)cc1", "values": [{"measurement": "Papp", "setting": "[1]", "value": 2.4, "unit": "×10⁻⁶ cm/s"}, {"measurement": "solubility kinetic", "value": 14, "unit": "µM"}, {"measurement": "microsomal CLint", "setting": "[2]", "value": 70, "unit": "µL/min/mg"}]}, {"smiles": "O=C(Nc1cc2c(c(C3=CCOCC3)c1)CNC2)c1cc(F)cc2[nH]ncc12", "values": [{"measurement": "Papp", "setting": "[1]", "value": 1.1, "unit": "×10⁻⁶ cm/s"}, {"measurement": "microsomal CLint", "setting": "[4]", "value": 152, "unit": "µL/min/mg"}, {"measurement": "solubility kinetic", "value": 157, "unit": "µM"}, {"measurement": "logD", "setting": "[3]", "value": 0.9}]}, {"smiles": "O=C(Nc1ccc2c(c1)CNC2)c1cc(F)cc2c1CCC2", "values": [{"measurement": "Papp", "setting": "[1]", "value": 10.7, "unit": "×10⁻⁶ cm/s"}, {"measurement": "microsomal CLint", "setting": "[4]", "value": 37.4, "unit": "µL/min/mg"}, {"measurement": "solubility kinetic", "value": 187, "unit": "µM"}, {"measurement": "logD", "setting": "[3]", "value": 1.2}]}, {"smiles": "O=C(N[C@H]1[C@H]2CCCCC[C@H]2[C@H]1C(=O)Nc1cccc(C2CCNCC2)c1)OCc1ccccc1", "note": "(racemic)", "values": [{"measurement": "Papp", "setting": "[1]", "value": 0.395, "unit": "×10⁻⁶ cm/s"}, {"measurement": "solubility kinetic", "value": 49, "unit": "µM"}, {"measurement": "microsomal CLint", "setting": "[2]", "value": 31.3, "unit": "µL/min/mg"}, {"measurement": "logD", "setting": "[3]", "value": 2.8}]}, {"smiles": "N#C[C@H](Nc1ccc2c(c1)CNC2)c1cc(Cl)cc2[nH]ncc12", "note": "(racemic)", "values": [{"measurement": "Papp", "setting": "[1]", "value": 1.1, "unit": "×10⁻⁶ cm/s"}, {"measurement": "solubility kinetic", "value": 297, "unit": "µM"}, {"measurement": "microsomal CLint", "setting": "[2]", "value": 10.3, "unit": "µL/min/mg"}, {"measurement": "logD", "setting": "[3]", "value": 0.9}]}, {"smiles": "CC(C)[C@H](Nc1ncnc2[nH]c(-c3cnn(CC(=O)N(C)C)c3)cc12)c1ccc2c(c1)OCCO2", "note": "(single isomer, unassigned)", "values": [{"measurement": "Papp", "setting": "[1]", "value": "2.05 ×10⁻⁶ cm/s and 1.62 ×10⁻⁶ cm/s"}, {"measurement": "microsomal CLint", "setting": "[4]", "value": "35 µL/min/mg and 45 µL/min/mg"}, {"measurement": "logD", "setting": "[3]", "value": "2.9 and 3"}]}, {"smiles": "NCc1cccc([C@H]2C[C@@H]2c2cc(Cl)cc(NC(=O)OCc3ccccc3)c2)c1", "note": "(racemic)", "values": [{"measurement": "Papp", "setting": "[1]", "value": 1.66, "unit": "×10⁻⁶ cm/s"}, {"measurement": "solubility kinetic", "value": 50, "unit": "µM"}, {"measurement": "microsomal CLint", "setting": "[2]", "value": 11.4, "unit": "µL/min/mg"}]}, {"smiles": "O=C(O)c1cc(Cl)c(F)cc1S(=O)(=O)Nc1ccc(Oc2ccccc2Cl)cc1", "values": [{"measurement": "Papp", "setting": "[1]", "value": 4.29, "unit": "×10⁻⁶ cm/s"}, {"measurement": "solubility kinetic", "value": 396, "unit": "µM"}, {"measurement": "microsomal CLint", "setting": "[2]", "value": 67.4, "unit": "µL/min/mg"}, {"measurement": "logD", "setting": "[3]", "value": 3.3}]}, {"smiles": "NCCc1ccc(NC(=O)c2cc(Cl)cc(NC(=O)OCc3ccccc3)c2)cc1", "values": [{"measurement": "Papp", "setting": "[1]", "value": 0.791, "unit": "×10⁻⁶ cm/s"}, {"measurement": "solubility kinetic", "value": 88, "unit": "µM"}, {"measurement": "microsomal CLint", "setting": "[2]", "value": 17.5, "unit": "µL/min/mg"}, {"measurement": "logD", "setting": "[3]", "value": 2.9}]}, {"smiles": "Cn1c(=O)[nH]c2c(C(=O)Nc3ccc4c(c3)CNC4)cc(Br)cc21", "values": [{"measurement": "Papp", "setting": "[1]", "value": 0.805, "unit": "×10⁻⁶ cm/s"}, {"measurement": "microsomal CLint", "setting": "[4]", "value": 12.5, "unit": "µL/min/mg"}, {"measurement": "solubility kinetic", "value": 161, "unit": "µM"}, {"measurement": "logD", "setting": "[3]", "value": 0.5}]}, {"smiles": "CCNC(=O)c1cc2c(N[C@H](c3ccc4c(c3)OCCO4)C(C)C)ncnc2[nH]1", "note": "(single isomer, unassigned)", "values": [{"measurement": "Papp", "setting": "[1]", "value": "2.7 ×10⁻⁶ cm/s and 2.9 ×10⁻⁶ cm/s"}, {"measurement": "microsomal CLint", "setting": "[4]", "value": "48 µL/min/mg and 72 µL/min/mg"}, {"measurement": "logD", "setting": "[3]", "value": 3.6}]}, {"smiles": "CC(C)NC(=O)[C@H](Nc1ccc2c(c1)CNC2)c1cc(Cl)cc2[nH]c(-c3ccccc3)nc12", "note": "(single isomer, unassigned)", "values": [{"measurement": "Papp", "setting": "[1]", "value": 0.2, "unit": "×10⁻⁶ cm/s"}, {"measurement": "microsomal CLint", "setting": "[4]", "value": 11, "unit": "µL/min/mg"}, {"measurement": "solubility kinetic", "value": 134, "unit": "µM"}, {"measurement": "logD", "setting": "[3]", "value": 2.8}]}, {"smiles": "COc1ccc([C@H](Cc2nnn[nH]2)NC(=O)c2ncnc3[nH]ccc23)cc1", "note": "(racemic)", "values": [{"measurement": "Papp", "setting": "[1]", "value": 1.39, "unit": "×10⁻⁶ cm/s"}, {"measurement": "solubility kinetic", "value": 395, "unit": "µM"}, {"measurement": "microsomal CLint", "setting": "[2]", "value": 5, "unit": "µL/min/mg"}, {"measurement": "logD", "setting": "[3]", "value": -0.1}]}, {"smiles": "C=CC[C@H](Nc1cccc(-c2nn[nH]n2)c1)c1cc(Cl)cc(NC(=O)OCc2ccccc2)c1", "note": "(racemic)", "values": [{"measurement": "Papp", "setting": "[1]", "value": 1.24, "unit": "×10⁻⁶ cm/s"}, {"measurement": "solubility kinetic", "value": 332, "unit": "µM"}, {"measurement": "microsomal CLint", "setting": "[2]", "value": 65.5, "unit": "µL/min/mg"}, {"measurement": "logD", "setting": "[3]", "value": 4.1}]}, {"smiles": "NCc1cccc(NC(=O)C[C@H](NC(=O)OCc2ccccc2)c2ccc(OCc3ccccc3)c(Br)c2)c1", "note": "(racemic)", "values": [{"measurement": "Papp", "setting": "[1]", "value": 0.783, "unit": "×10⁻⁶ cm/s"}, {"measurement": "solubility kinetic", "value": 21, "unit": "µM"}, {"measurement": "microsomal CLint", "setting": "[2]", "value": 12.4, "unit": "µL/min/mg"}]}, {"smiles": "NCc1cccc(NC(=O)c2cc(OCc3ccccc3)ccc2CNC(=O)OCc2ccccc2)c1", "values": [{"measurement": "Papp", "setting": "[1]", "value": 1.75, "unit": "×10⁻⁶ cm/s"}, {"measurement": "solubility kinetic", "value": 14, "unit": "µM"}, {"measurement": "microsomal CLint", "setting": "[2]", "value": 21, "unit": "µL/min/mg"}, {"measurement": "logD", "setting": "[3]", "value": 2.8}]}]}
